Data reported in US20220304958A1, “SMALL MOLECULE INHIBITORS OF A PROTEIN COMPLEX” (THE REGENTS OF THE UNIVERSITY OF CALIFORNIA, priority 2019, published 2022).
Like-named read-outs stand apart in the source and are kept apart here. Peptide text beside a SMILES is read from it.

Molecular target: T1, HEG1-KRIT1 interaction (Homo sapiens, UniProt O00522)
T1 construct: His6-EGFP-KRIT1 (WT) FERM domain (417-736) and KRIT1 (L717,721A) mutant were cloned into pETM-11; His6 (N); made in house; host or cells: E. coli BL21 Star (DE3)
T1 sequence (O00522 417-736): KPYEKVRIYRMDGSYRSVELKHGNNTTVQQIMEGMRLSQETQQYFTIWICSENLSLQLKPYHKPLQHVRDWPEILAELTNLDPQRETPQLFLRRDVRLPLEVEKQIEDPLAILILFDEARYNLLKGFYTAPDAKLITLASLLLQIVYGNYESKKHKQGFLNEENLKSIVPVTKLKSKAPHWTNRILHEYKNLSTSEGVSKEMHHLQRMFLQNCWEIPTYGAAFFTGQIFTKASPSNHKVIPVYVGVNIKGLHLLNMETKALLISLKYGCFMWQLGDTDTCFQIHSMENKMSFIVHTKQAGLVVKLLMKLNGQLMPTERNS
Assay: Flow cytometry assay for the HEG1-KRIT1 FERM domain interaction (competition binding on HEG1 matrix beads)
Procedure: Bead Coupling. SPHERO Neutravidin Polystyrene Particles, […] (Spherotech) were washed twice with wash buffer (20 mM Tris, 150 mM NaCl. pH 7.4 containing 0.01% NP-40, and 1 mM EDTA). Prior to incubation with biotin-tagged HEG 1 cytoplasmic tail protein, an appropriate volume of bead slurry was passivated to inhibit non-specific binding by incubation for 30 minutes at room temperature in reaction buffer containing 0.1% BSA (20 mM Tris, 150 mM NaCl, pH 7.4 0.01% NP-40, 1 mM EDTA, 1 mM DTT, and 0.1% BSA). Passivated beads were collected by centrifugation, resuspended to 3,600 particles/μl in reaction buffer and biotinylated HEG1 tail was added to a final concentration of 150 nM and incubated overnight on a rotator at 4° C. The beads were washed three times by centrifugation with ice-cold reaction buffer to remove unbound HEG1 peptide. Beads were diluted such that a final concentration of 2000 beads/μL were available for addition to assay plates.
Flow cytometry assay. A final volume of 100 μl containing 140 nM EGFP-KRIT1 FERM domain, with 10% DMSO or 10% compounds in DMSO, was incubated for 15 minutes at room temperature on a rotator. 100 μl of beads were added to the mixture for a final volume of 200 μl at 1,000 particles/μl with 70 nM EGFP-KRIT1 and incubated for 15 minutes at room temperature on a rotator. The control beads were: without KRIT1 (minimum signal); with KRIT1 (maximum signal); and with KRIT1 plus 2 μM HEG1 7-mer (positive blocking control). The EGFP fluorescence was measured using a BD Accuri flow cytometer. For screening purposes, the final volume of the reaction was scaled down to 10 μl and samples were processed as previously described (27). For FIGS. 1D-1F, 2B, and 3E, a representative experiment is shown of at the least 3 independent repeats.
Assay plate assembly. Plate assays were performed in 384-well microtiter plates (Greiner Bio-one, #784101). Reaction buffer. HEG1-coupled beads, and EGFP-KRIT-FERM constructs were added using a MultiFlo™ Microplate Dispenser (BioTek Instruments, Inc.). Compounds were added to single-point assay plates pre-loaded with reaction buffer using a Biomek^NX liquid handler (BeckmanCoulter) equipped with a […] pintool (V & P Scientific, Inc.). Compound libraries were dispensed to a final concentration of 10 μM. An equal volume (10 nL) of DMSO was added to the vehicle control wells. Following the addition of library compounds, 5 μL of assay buffer was added and the plates were mixed before addition of 5 μL of the protein-coupled bead mixtures; Plates were protected from light and incubated on a rotator for 15 minutes at room temperature. Binding of EGFP-KRIT to HEG1 coupled beads was evaluated using an Accuri C6 flow cytometer.
Data Acquisition. Assay plates were sampled using the HyperCyt™ high throughput flow cytometry platform (Intellicyt; Albuquerque, N. Mex.). During sampling, the probe moves from well to well and samples 1-2 μL from each well pausing 0.4 sec in the air before sampling the next well. The resulting sample stream consisting of 384 separated samples is delivered to an Accuri C6 flow cytometer (BD Biosciences; San Jose, Calif.). Plate data are acquired as time-resolved files that are parsed by software-based well identification algorithms and merged with compound library files. Plate performance was validated using the Z-prime calculation (28).
Compounds that satisfied hit selection criteria in the primary screen were cherry-picked from compound storage plates and tested to confirm activity and determine potency. Dose response data points were fitted by Prism software (GraphPad Software Inc., San Diego, Calif.) using nonlinear least-squares regression in a sigmoidal dose-response model with variable slope, also known as the 4-parameter logistic equation.

[1] = Table 2, flow cytometry-screening assay, NI = no inhibition detected up to 500 μM, read-out: IC50
[2] = Table 2, flow cytometry-screening assay, NI = no inhibition detected up to 500 μM
[3] = inhibition of the HEG1-KRIT1 interaction, flow cytometry assay

| Compound | IC50 [1] [µM] | also measured |
| --- | --- | --- |
| O=C(O)c1ccccc1/N=C/c1c(O)ccc2ccccc12 [BL-0547 (Hki3), (E)-2-(((2-hydroxynaphthalen-1-yl)methylene)amino)benzoic acid] | 2.9 | – |
| Oc1ccc2ccccc2c1/C=N/c1nn[nH]n1 [BL-0549, (E)-1-(((1H-tetrazol-5-yl)imino)methyl)naphthalen-2-ol] | 3.2 | – |
| Oc1ccc2ccccc2c1/C=N/c1ncn[nH]1 [BL-0550, (E)-1-(((1H-1,2,4-triazol-5-yl)imino)methy)naphthalen-2-ol] | – | IC50 (μM) [2]: precipitation |
| Oc1ccc2ccccc2c1/C=N/c1cccnc1 [BL-0551, (E)-1-((pyridin-3-ylimino)methyl)naphthalen-2-ol] | – | IC50 (μM) [2]: precipitation |
| O=C(O)c1ccc(/N=C/c2c(O)ccc3ccccc23)cc1 [BL-0552, (E)-4-(((2-hydroxynaphthalen-1-yl)methylene)amino)benzoic acid] | 1.8 | – |
| O=C(O)c1cccc(/N=C/c2c(O)ccc3ccccc23)c1 [BL-0558, (E)-3-(((2-hydroxynaphthalen-1-yl)methylene)amino)benzoic acid] | 3.2 | – |
| O=C(O)c1ccccc1NCc1c(O)ccc2ccccc12 [BL-0588, 2-(((2-hydroxynaphthalen-1-yl)methyl)amino)benzoic acid] | > 500 | – |
| COC(=O)c1ccccc1NC(=O)c1c(O)ccc2ccccc12 [BL-0589, methyl 2-(2-hydroxy-1-naphthamido)benzoate] | – | IC50 (μM) [2]: precipitation |
| O=C(O)c1ccccc1NC(=O)c1c(O)ccc2ccccc12 [BL-0590, 2-(2-hydroxy-1-naphthamido)benzoic acid] | > 500 | – |
| ON=Cc1c(O)ccc2ccccc12 [BL-0591, 2-hydroxy-l-naphthaldehyde oxime] | > 500 | – |
| NCc1c(O)ccc2ccccc12 [BL-0592, 1-(aminomethyl)naphthalen-2-ol] | > 500 | – |
| c1ccc2c(c1)ccc1oncc12 [BL-0593, naphtho[1,2-d]isoxazole] | > 500 | – |
| O=C(O)c1ccccc1C#Cc1c(O)ccc2ccccc12 [BL-0604, 2-((2-hydroxynaphthalen-1-yl)ethynyl)benzoic acid] | > 500 | – |
| O=C(O)c1ccccc1/C=C/c1c(O)ccc2ccccc12 [BL-0605, (E)-2-(2-(2-hydroxynaphthalen-1-yl)vinyl)benzoic acid] | > 500 | – |
| O=C(O)c1ccccc1CCc1c(O)ccc2ccccc12 [BL-0606, 2-(2-(2-hydroxynaphthalen-1-yl)ethyl)benzoic acid] | > 500 | – |
| O=Cc1nccc2ccccc12 [BL-0607, Isoquinoline-1-carbaldehyde] | > 500 | IC50 [3]: no inhibition |
| O=Cc1cc(-c2ccccc2)ccc1O [BL-0628 (HKi4), 4-Hydroxy-[1,1′-biphenyl]-3-carbaldehyde] | 21.8 | – |
| Oc1ccc2c(/C=N/c3ccccc3)c(O)ccc2c1 [BL-0661 (HKi7), 1-((phenylimino)methyl)naphthalene-2,6-diol] | 32 | – |
| Cc1ccc2c(C=O)c(O)ccc2c1 [BL-0666 (HKi8), 2-hydroxy-6-methyl-1-naphthaldehyde] | 5.1 | – |
| COc1cccc2ccc(O)c(C=O)c12 [BL-0691, 2-hydroxy-8-methoxy-1-naphthaldehyde] | 18 | – |
| O=Cc1c(O)ccc2cccc(O)c12 [BL-0693, 2,8-dihydroxy-1-naphthaldehyde] | 45 | – |
| OC1(c2cccc3ccccc23)COC1 [BL-0695, 3-(naphthalen-1-yl)oxetan-3-ol] | > 500 | – |
| CC(=O)c1ccc2c(C=O)c(O)ccc2c1 [BL-0700 (HKi9), 6-acetyl-2-hydroxy-1-naphthaldehyde] | 58.6 | – |
| O=Cc1c(O)ccc2cc(Cl)ccc12 [BL-702 (Hki10), 6-chloro-2-hydroxy-1-naphthaldehyde] | 3.2 | – |

| Compound | IC50 [1] [µM] | also measured |
| --- | --- | --- |
| OCC(CO)c1c(O)ccc2ccccc12 [BL-703, 2-(2-hydroxynaphthalen-1-yl)propane-1,3-diol] | > 500 | – |
| CS(=O)(=O)c1c(O)ccc2ccccc12 [BL-704, 1-(Methylsulfonyl)naphthalen-2-ol] | > 500 | – |
| C[S+]([O-])c1c(O)ccc2ccccc12 (centres unmarked) [BL-705, 1-(Methylsulfinyl)naphthalen-2-ol] | > 500 | – |
| Oc1ccc2ccccc2c1C(O)C(F)(F)F (centres unmarked) [BL-706, 1-(2,2,2-Trifluoro-1-hydroxyethyl)naphthalen-2-ol] | > 500 | – |
| CSc1c(O)ccc2ccccc12 [BL-707, 1-(methylthio)naphthalen-2-ol] | > 500 | – |
| CC(O)c1c(O)ccc2ccccc12 (centres unmarked) [BL-0713, 1-(1-hydroxyethyl)naphthalen-2-ol] | > 500 | – |
| O=Cc1c(O)ccc2cc(N3CCCCC3)ccc12 [BL-0736, 2-Hydroxy-6-(piperidin-1-yl)-1-naphthaldehyde] | 28.8 | – |
| CN(C)c1ccc2c(C=O)c(O)ccc2c1 [BL-0737, 6-(Dimethylamino)-2-hydroxy-1-naphthaldehyde] | 2.6 | – |
| O=Cc1c(O)ccc2cc(N3CCC3=O)ccc12 [BL-0738, 2-Hydroxy-6-(2-oxoazetidin-1-yl)-1-naphthaldehyde] | 30.3 | – |
| C=CCc1ccc2c(C=O)c(O)ccc2c1 [BL-0739, 6-Allyl-2-hydroxy-1-naphthaldehyde] | 1.1 | – |
| CCc1ccc2c(C=O)c(O)ccc2c1 [BL-0740, 6-Ethyl-2-hydroxy-1-naphthaldehyde] | 3.9 | – |
| C#Cc1ccc2c(C=O)c(O)ccc2c1 [BL-0742, 6-Ethynyl-2-hydroxy-1-naphthaldehyde] | 4 | – |
| CCCCc1ccc2c(C=O)c(O)ccc2c1 [BL-0743, 6-Butyl-2-hydroxy-1-naphthaldehyde] | 78.8 | – |
| CCOC(=O)/C=C/c1ccc2c(C=O)c(O)ccc2c1 [BL-0744, Ethyl (E)-3-(5-formyl-6-hydroxynaphthalen-2-yl)acrylate] | 79.3 | – |
| CC(O)c1ccc2c(C=O)c(O)ccc2c1 (centres unmarked) [BL-0745, 2-Hydroxy-6-(1-hydroxyethyl)-1-naphthaldehyde] | 31.9 | – |
| N#Cc1ccc2c(C=O)c(O)ccc2c1 [BL-0788, 5-Formyl-6-hydroxy-2-naphthonitrile] | 3.6 | – |
| CCOc1ccc2c(C=O)c(O)ccc2c1 [BL-0794, 6-Ethoxy-2-hydroxy-1-naphthaldehyde] | 4.6 | – |
| CC#Cc1ccc2c(C=O)c(O)ccc2c1 [BL-0817, 2-Hydroxy-6-(prop-1-yn-1-yl)-1-naphthaldehyde] | 15 | – |
| O=Cc1c(O)ccc2cc(-c3ccccc3)ccc12 [BL-0818, 2-Hydraxy-6-phenyl-1-naphthaldehyde] | 3 | – |
| O=Cc1c(O)ccc2cc(-c3cccs3)ccc12 [BL-0819, 2-Hydroxy-6-(thiophen-2-yl)-1-naphthaldehyde] | 1.2 | – |
| CC(NC(=O)c1ccccc1N)c1ccccc1 (centres unmarked) [Compound 4, 2-amino-N-(1-phenylethyl)benzamide] | > 500 | – |
| CC(N)c1ccccc1N (centres unmarked) [Compound 5, 2-(1-aminoethyl)aniline] | > 500 | – |
| O=Cc1ccccc1O [Compound 16, Salicylaldehyde] | > 500 | IC50 [3]: did not exhibit detectable activity |
| N=C(N)NCCC[C@H](NC(=O)[C@H](CCCNC(=N)N)NC(=O)[C@H](CCCNC(=N)N)NC(=O)[C@@H](N)CO)C(=O)N[C@@H](CC(=O)O)C(=O)N[C@@H](Cc1ccc(O)cc1)C(=O)N[C@@H](Cc1ccccc1)C(=O)O [HEG1 C-terminus 7-mer peptide, reference compound] (H-SRRRDYF-OH; N-terminus and C-terminus assumed) | – | IC50 (blocking of GFP-KRIT1 FERM domain binding to HEG1 matrix beads, read-out: IC50): 0.41 µM |
